In brackets after ≈: the same amount, converted by molar mass.
Experiments:
[1] = tested on: Staphylococcus aureus S13E; format: cell-based
Procedure: (§1) The MIC's were determined using a standard broth micro-dilution assay.

[2] = tested on: Staphylococcus aureus SA1199B; format: cell-based
Procedure: as §1

[3] = tested on: Entercoccus faecium 180-1; assay: broth micro-dilution MIC; format: cell-based
Procedure: as §1

[4] = tested on: Staphylococcus aureus 446; assay: broth micro-dilution MIC; format: cell-based
Procedure: as §1

[5] = tested on: Staphylococcus aureus 447; assay: broth micro-dilution MIC; format: cell-based
Procedure: as §1

[6] = tested on: Staphylococcus aureus 491; assay: broth micro-dilution MIC; format: cell-based
Procedure: as §1

[7] = tested on: Staphylococcus aureus SA1199A; assay: broth micro-dilution MIC; format: cell-based
Procedure: as §1

[8] = tested on: Staphylococcus aureus SA1199; assay: broth micro-dilution MIC; format: cell-based
Procedure: as §1

[9] = tested on: Staphylococcus aureus X778; assay: broth micro-dilution MIC; format: cell-based
Procedure: as §1

[10] = tested on: Enterococcus gallinarum 245; assay: broth micro-dilution MIC; format: cell-based; conditions: Enterococcus gallinarum 245
Procedure: (§2) The formula I compounds have in vitro and in vivo activity against Gram-positive pathogenic bacteria. The MIC's were determined using a standard broth micro-dilution assay.

[11] = tested on: Staphylococcus epidermidis 270; assay: broth micro-dilution MIC; format: cell-based
Procedure: as §2

[12] = tested on: Staphylococcus haemolyticus 105; assay: broth micro-dilution MIC; format: cell-based
Procedure: as §2

[13] = tested on: Staphylococcus haemolyticus 415; assay: broth micro-dilution MIC; format: cell-based
Procedure: as §2

[14] = tested on: vancomycin-resistant enterococci; assay: broth micro-dilution, mean geometric MIC; format: cell-based, Enterococcus faecium and Enterococcus faecalis; conditions: enterococci, 24-hour incubation
[15] = tested on: vancomycin-susceptible enterococci; assay: broth micro-dilution, mean geometric MIC; format: cell-based, Enterococcus faecium and Enterococcus faecalis; conditions: enterococci, 24-hour incubation
[16] = tested on: Staphylococcus aureus X400; assay: broth micro-dilution MIC; format: cell-based
Procedure: as §1

[17] = tested on: Streptococcus pyogenes C203; assay: broth micro-dilution MIC; format: cell-based
Procedure: as §1

[18] = tested on: Entercoccus faecium 180; assay: broth micro-dilution MIC; format: cell-based; conditions: Entercoccus faecium 180
Procedure: as §2

[19] = tested on: Streptococcus pneumoniae P1; assay: broth micro-dilution MIC; format: cell-based
Procedure: as §2

[20] = tested on: Entercoccus faecium 276; assay: broth micro-dilution MIC; format: cell-based
Procedure: as §1

[21] = tested on: Entercoccus faecium 2041; assay: broth micro-dilution MIC; format: cell-based; conditions: Entercoccus faecium 2041
Procedure: as §2

Row | Structure (SMILES) | MIC [1] [µg/mL] | MIC [2] [µg/mL] | MIC [3] [µg/mL] | MIC [4] [µg/mL] | MIC [5] [µg/mL] | MIC [6] [µg/mL] | MIC [7] [µg/mL] | MIC [8] [µg/mL] | MIC [9] [µg/mL] | MIC [10] [µg/mL] | MIC [11] [µg/mL] | MIC [12] [µg/mL] | MIC [13] [µg/mL] | mean geometric MIC, Vancomycin Resistant Strains [14] [µg/mL] | mean geometric MIC, Vancomycin Sensitive Strains [15] [µg/mL] | MIC [16] [µg/mL] | MIC [17] [µg/mL] | MIC [18] [µg/mL] | MIC [19] [µg/mL] | MIC [21] [µg/mL] | further results
1 | CNC(CC(C)C)C(=O)NC1C(=O)NC(CC(N)=O)C(=O)NC2C(=O)NC3C(=O)NC(C(=O)NC(C(=O)O)c4cc(O)cc(O)c4-c4cc3ccc4O)C(OC3CC(C)(N)C(O)C(C)O3)c3ccc(c(Cl)c3)Oc3cc2cc(c3OC2OC(CO)C(O)C(O)C2OC2CC(C)(NCc3ccc(OC(C)=O)c(OC)c3)C(O)C(C)O2)Oc2ccc(cc2Cl)C1O (stereo not shown) [Compound 99] | 0.5 (≈ 0.282 µM) | 0.5 (≈ 0.282 µM) | ≤ 0.06 | 0.5 (≈ 0.282 µM) | 2 (≈ 1.13 µM) | 1 (≈ 0.565 µM) | 0.5 (≈ 0.282 µM) | 0.5 (≈ 0.282 µM) | 0.5 (≈ 0.282 µM) | 32 (≈ 18.1 µM) | 1 (≈ 0.565 µM) | 8 (≈ 4.52 µM) | 32 (≈ 18.1 µM) | 72 | 0.76 | – | – | – | – | – | –
2 | CNC(CC(C)C)C(=O)NC1C(=O)NC(CC(N)=O)C(=O)NC2C(=O)NC3C(=O)NC(C(=O)NC(C(=O)O)c4cc(O)cc(O)c4-c4cc3ccc4O)C(OC3CC(C)(N)C(O)C(C)O3)c3ccc(c(Cl)c3)Oc3cc2cc(c3OC2OC(CO)C(O)C(O)C2OC2CC(C)(NCc3ccc([S+]([O-])c4ccccc4)cc3)C(O)C(C)O2)Oc2ccc(cc2Cl)C1O (stereo not shown) [Compound 159] | 1 (≈ 0.553 µM) | ≤ 0.06 | ≤ 0.06 | 0.5 (≈ 0.277 µM) | 4 (≈ 2.21 µM) | 2 (≈ 1.11 µM) | ≤ 0.06 | – | 2 (≈ 1.11 µM) | 8 (≈ 4.43 µM) | 0.5 (≈ 0.277 µM) | 16 (≈ 8.86 µM) | 8 (≈ 4.43 µM) | 27 | 0.50 | 4 (≈ 2.21 µM) | ≤ 0.06 | 2 (≈ 1.11 µM) | ≤ 0.06 | – | –
3 | CNC(CC(C)C)C(=O)NC1C(=O)NC(CC(N)=O)C(=O)NC2C(=O)NC3C(=O)NC(C(=O)NC(C(=O)O)c4cc(O)cc(O)c4-c4cc3ccc4O)C(OC3CC(C)(N)C(O)C(C)O3)c3ccc(c(Cl)c3)Oc3cc2cc(c3OC2OC(CO)C(O)C(O)C2OC2CC(C)(NCC=Cc3ccccc3)C(O)C(C)O2)Oc2ccc(cc2Cl)C1O (stereo not shown) [Compound 38] | ≤ 0.06 | – | ≤ 0.06 | 0.5 (≈ 0.293 µM) | – | 0.5 (≈ 0.293 µM) | – | 1 (≈ 0.585 µM) | 0.5 (≈ 0.293 µM) | – | 0.5 (≈ 0.293 µM) | 1 (≈ 0.585 µM) | 1 (≈ 0.585 µM) | 4.0 | 0.42 | 1 (≈ 0.585 µM) | ≤ 0.06 | ≤ 0.06 | ≤ 0.06 | ≤ 0.06 | MIC [20]: 0.5 µg/mL (≈ 0.293 µM)
4 | CNC(CC(C)C)C(=O)NC1C(=O)NC(CC(N)=O)C(=O)NC2C(=O)NC3C(=O)NC(C(=O)NC(C(=O)O)c4cc(O)cc(O)c4-c4cc3ccc4O)C(OC3CC(C)(N)C(O)C(C)O3)c3ccc(c(Cl)c3)Oc3cc2cc(c3OC2OC(CO)C(O)C(O)C2OC2CC(C)(NCc3cc(C)cc(C)c3)C(O)C(C)O2)Oc2ccc(cc2Cl)C1O (stereo not shown) [Compound 89] | – | 1 (≈ 0.585 µM) | ≤ 0.06 | 0.5 (≈ 0.292 µM) | 1 (≈ 0.585 µM) | 1 (≈ 0.585 µM) | ≤ 0.06 | 0.5 (≈ 0.292 µM) | – | ≤ 0.06 | 1 (≈ 0.585 µM) | 1 (≈ 0.585 µM) | 2 (≈ 1.17 µM) | 11 | 0.44 | – | ≤ 0.06 | 0.125 (≈ 0.0731 µM) | ≤ 0.06 | ≤ 0.06 | MIC [20]: ≤ 0.06 µg/mL
5 | CNC(CC(C)C)C(=O)NC1C(=O)NC(CC(N)=O)C(=O)NC2C(=O)NC3C(=O)NC(C(=O)NC(C(=O)O)c4cc(O)cc(O)c4-c4cc3ccc4O)C(OC3CC(C)(N)C(O)C(C)O3)c3ccc(c(Cl)c3)Oc3cc2cc(c3OC2OC(CO)C(O)C(O)C2OC2CC(C)(NCc3ccc(N4CCOCC4)cc3)C(O)C(C)O2)Oc2ccc(cc2Cl)C1O (stereo not shown) [Compound 147] | 1 (≈ 0.566 µM) | ≤ 0.06 | 2 (≈ 1.13 µM) | 0.5 (≈ 0.283 µM) | – | ≤ 0.06 | ≤ 0.06 | 0.5 (≈ 0.283 µM) | – | – | – | 1 (≈ 0.566 µM) | 8 (≈ 4.53 µM) | – | 1.3 | 4 (≈ 2.26 µM) | ≤ 0.06 | 2 (≈ 1.13 µM) | ≤ 0.06 | ≤ 0.06 | –
6 | CNC(CC(C)C)C(=O)NC1C(=O)NC(CC(N)=O)C(=O)NC2C(=O)NC3C(=O)NC(C(=O)NC(C(=O)O)c4cc(O)cc(O)c4-c4cc3ccc4O)C(OC3CC(C)(N)C(O)C(C)O3)c3ccc(c(Cl)c3)Oc3cc2cc(c3OC2OC(CO)C(O)C(O)C2OC2CC(C)(NCCc3cccc(OCc4ccccc4)c3)C(O)C(C)O2)Oc2ccc(cc2Cl)C1O (stereo not shown) [Compound 69] | – | 2 (≈ 1.11 µM) | ≤ 0.06 | 1 (≈ 0.555 µM) | 1 (≈ 0.555 µM) | 1 (≈ 0.555 µM) | ≤ 0.06 | 1 (≈ 0.555 µM) | – | 8 (≈ 4.44 µM) | 2 (≈ 1.11 µM) | 4 (≈ 2.22 µM) | 8 (≈ 4.44 µM) | 13 | 0.44 | 0.5 (≈ 0.277 µM) | – | 4 (≈ 2.22 µM) | – | – | MIC [20]: 0.5 µg/mL (≈ 0.277 µM)
7 | CNC(CC(C)C)C(=O)NC1C(=O)NC(CC(N)=O)C(=O)NC2C(=O)NC3C(=O)NC(C(=O)NC(C(=O)O)c4cc(O)cc(O)c4-c4cc3ccc4O)C(OC3CC(C)(N)C(O)C(C)O3)c3ccc(c(Cl)c3)Oc3cc2cc(c3OC2OC(CO)C(O)C(O)C2OC2CC(C)(NCC34CC5CC(CC(C5)C3)C4)C(O)C(C)O2)Oc2ccc(cc2Cl)C1O (stereo not shown) [Compound 141] | – | 2 (≈ 1.15 µM) | ≤ 0.06 | 2 (≈ 1.15 µM) | 1 (≈ 0.574 µM) | 0.5 (≈ 0.287 µM) | ≤ 0.06 | – | 0.5 (≈ 0.287 µM) | 4 (≈ 2.3 µM) | 1 (≈ 0.574 µM) | 1 (≈ 0.574 µM) | 4 (≈ 2.3 µM) | 8.0 | – | – | ≤ 0.06 | 0.5 (≈ 0.287 µM) | ≤ 0.06 | ≤ 0.06 | MIC [20]: 0.5 µg/mL (≈ 0.287 µM)
8 | CNC(CC(C)C)C(=O)NC1C(=O)NC(CC(N)=O)C(=O)NC2C(=O)NC3C(=O)NC(C(=O)NC(C(=O)O)c4cc(O)cc(O)c4-c4cc3ccc4O)C(OC3CC(C)(N)C(O)C(C)O3)c3ccc(c(Cl)c3)Oc3cc2cc(c3OC2OC(CO)C(O)C(O)C2OC2CC(C)(NCc3ccc4c(c3)CCCC4)C(O)C(C)O2)Oc2ccc(cc2Cl)C1O (stereo not shown) [Compound 168] | ≤ 0.06 | 1 (≈ 0.576 µM) | ≤ 0.06 | ≤ 0.06 | ≤ 0.06 | 0.5 (≈ 0.288 µM) | ≤ 0.06 | 0.5 (≈ 0.288 µM) | 0.5 (≈ 0.288 µM) | 2 (≈ 1.15 µM) | – | 0.5 (≈ 0.288 µM) | 2 (≈ 1.15 µM) | 3.4 | 0.10 | ≤ 0.06 | ≤ 0.06 | 0.25 (≈ 0.144 µM) | ≤ 0.06 | ≤ 0.06 | –
9 | CNC(CC(C)C)C(=O)NC1C(=O)NC(CC(N)=O)C(=O)NC2C(=O)NC3C(=O)NC(C(=O)NC(C(=O)O)c4cc(O)cc(O)c4-c4cc3ccc4O)C(OC3CC(C)(N)C(O)C(C)O3)c3ccc(c(Cl)c3)Oc3cc2cc(c3OC2OC(CO)C(O)C(O)C2OC2CC(C)(NCc3ccc4c(c3)CCO4)C(O)C(C)O2)Oc2ccc(cc2Cl)C1O (stereo not shown) [Compound 82] | ≤ 0.06 | 1 (≈ 0.58 µM) | 0.125 (≈ 0.0725 µM) | 2 (≈ 1.16 µM) | 4 (≈ 2.32 µM) | 1 (≈ 0.58 µM) | 0.5 (≈ 0.29 µM) | – | 0.5 (≈ 0.29 µM) | 0.125 (≈ 0.0725 µM) | 4 (≈ 2.32 µM) | 8 (≈ 4.64 µM) | 8 (≈ 4.64 µM) | 22 | 0.50 | – | ≤ 0.06 | 2 (≈ 1.16 µM) | ≤ 0.06 | 0.5 (≈ 0.29 µM) | MIC [20]: ≤ 0.06 µg/mL

From patent US5840684A, “Glycopeptide antibiotic derivatives” (Eli Lilly and Company, priority 1995, dated 1998)
